Values quoted from earlier work in patent US20120183587A1, “FLAVONOL COMPOSITIONS” (priority 2011, published 2012).

Settings: Guglen et al., Eur. J. Clin. Pharmacol. 1975

Structure (SMILES): O=c1c(O)c(-c2ccc(O)c(O)c2)oc2cc(O)cc(O)c12 [quercetin, 3,3′,4′,5,7-pentahydroxy-2-phenylchromen-4-one]
- extent of absorption from an oral dose: about 1%
